Assay results reported in the supplement of paper PMC10307832.

Key:
Assay in all cases: relative viability (nuclei count vs DMSO), 5 days (fraction); higher = more cells survive
AZD6482 + OSI-027 = compound: Cc1cc([C@@H](C)Nc2ccccc2C(=O)O)c2nc(N3CCOCC3)cc(=O)n2c1 [AZD6482] + COc1cccc2cc(-c3nc([C@H]4CC[C@H](C(=O)O)CC4)n4ncnc(N)c34)[nH]c12 [OSI-027] (partner 0.5 µM)
Method in brief: (§1)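 A single step with final 0.05% Triton X-100, 1% formaldehyde and 1 ug/ml Hoechst fixed the cells and stained nuclei 5 days after treatment. Lung cancer cell lines in 1536-well plates had been treated by pin tool the day after seeding with one drug alone or a fixed anchor-drug dose plus five library-drug doses (not always all listed) in √10 steps, and nuclei were counted on 4× images. Relative viability is the ratio of nuclei in treated wells to nuclei in vehicle wells, taken as the median of duplicate plates.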

[1] = compound: COc1cc2nc(N3CCCN(C)CC3)nc(NC3CCN(Cc4ccccc4)CC3)c2cc1OC + CS(=O)(=O)CCNCc1ccc(-c2ccc3ncnc(Nc4ccc(OCc5cccc(F)c5)c(Cl)c4)c3c2)o1 [Lapatinib] (partner 2 µM)
Method in brief: as §1

[2] = compound: COc1cc2nc(N3CCCN(C)CC3)nc(NC3CCN(Cc4ccccc4)CC3)c2cc1OC + COc1cc2c(Oc3ccc(NC(=O)C4(C(=O)Nc5ccc(F)cc5)CC4)cc3F)ccnc2cc1OCCCN1CCOCC1 [Foretinib] (partner 0.25 µM)
Method in brief: as §1

AZD6482 + Olaparib = compound: Cc1cc([C@@H](C)Nc2ccccc2C(=O)O)c2nc(N3CCOCC3)cc(=O)n2c1 [AZD6482] + O=C(c1cc(Cc2n[nH]c(=O)c3ccccc23)ccc1F)N1CCN(C(=O)C2CC2)CC1 [Olaparib] (partner 8 µM)
Method in brief: as §1

Row | Cell Line | relative viability (AZD6482 + OSI-027; first compound 0.08 µM) | relative viability (AZD6482 + OSI-027; first compound 0.253 µM) | relative viability (AZD6482 + OSI-027; first compound 0.8 µM) | relative viability (AZD6482 + OSI-027; first compound 2.53 µM) | relative viability (AZD6482 + OSI-027; first compound 8 µM) | relative viability ([1]; first compound 0.2 µM) | relative viability ([1]; first compound 0.6325 µM) | relative viability ([1]; first compound 2 µM) | relative viability ([1]; first compound 6.325 µM) | relative viability ([2]; first compound 0.2 µM) | relative viability ([2]; first compound 0.6325 µM) | relative viability ([2]; first compound 2 µM) | relative viability ([2]; first compound 6.325 µM) | relative viability (AZD6482 + Olaparib; first compound 0.08 µM) | relative viability (AZD6482 + Olaparib; first compound 0.253 µM) | relative viability (AZD6482 + Olaparib; first compound 0.8 µM) | relative viability (AZD6482 + Olaparib; first compound 2.53 µM) | relative viability (AZD6482 + Olaparib; first compound 8 µM)
1 | NCI-H322M | 0.523 | 0.497 | 0.531 | 0.317 | 0.414 | 0.573 | 0.642 | 0.621 | 0.605 | 0.899 | 0.94 | 1.05 | 0.923 | 0.671 | 0.761 | 0.749 | 0.494 | 0.701
2 | NCI-H358 | 0.711 | 0.557 | 0.662 | 0.257 | 0.312 | 0.449 | 0.554 | 0.49 | 0.347 | 0.701 | 0.824 | 0.81 | 0.566 | 0.535 | 0.554 | 0.624 | 0.282 | 0.52
3 | NCI-H460 | 0.631 | 0.589 | 0.543 | 0.326 | 0.292 | 0.9 | 0.979 | 0.902 | 0.487 | 0.922 | 0.952 | 1.03 | 0.993 | 0.335 | 0.394 | 0.435 | 0.216 | 0.327
4 | NCI-H520 | 0.214 | 0.176 | 0.211 | 0.178 | 0.178 | 0.892 | 0.894 | 0.92 | 0.3 | 0.683 | 0.633 | 0.622 | 0.598 | 0.295 | 0.266 | 0.262 | 0.162 | 0.185
5 | NCI-H596 | 0.676 | 0.596 | 0.809 | 0.732 | 0.559 | 1.1 | 0.563 | 1.24 | 0.837 | 0.847 | 0.902 | 0.78 | 0.76 | 0.596 | 0.68 | 1.01 | 0.737 | 0.598
6 | NCI-H647 | 0.459 | 0.513 | 0.612 | 0.335 | 0.315 | 1.16 | 0.967 | 1.11 | 0.417 | 1.15 | 0.952 | 1.35 | 0.918 | 0.544 | 0.482 | 0.554 | 0.373 | 0.419
7 | NCI-H650 | 0.588 |  | 0.457 | 0.305 | 0.356 | 0.731 | 0.839 | 1.3 | 0.692 | 1.06 | 0.948 | 1.12 | 0.965 | 0.315 | 0.364 | 0.337 | 0.31 | 0.268
8 | NCI-H661 | 0.651 | 0.722 | 0.649 | 0.4 | 0.435 | 0.568 | 0.503 | 0.68 | 0.563 | 1.04 | 0.972 | 1.06 | 0.995 | 0.733 | 0.857 | 0.83 | 0.719 | 0.729
9 | NCI-H727 | 0.457 | 0.521 | 0.511 | 0.43 | 0.518 | 0.769 | 0.901 | 0.838 | 0.543 | 0.771 | 1.04 | 0.889 | 0.832 | 0.681 | 0.666 | 0.66 |  | 0.669
10 | NCI-H838 | 0.334 | 0.378 | 0.355 | 0.199 | 0.27 | 0.948 | 1.11 | 1.13 | 0.918 | 1.08 | 1.17 | 1.06 | 1.03 | 0.631 | 0.712 | 0.651 | 0.433 | 0.395
11 | NCI-H1355 | 0.287 | 0.323 | 0.384 | 0.256 | 0.298 | 1.01 | 0.992 | 1.05 | 0.951 | 0.973 | 0.968 | 1.05 | 0.919 | 0.597 | 0.63 | 0.708 | 0.522 | 0.564
12 | NCI-H1395 | 0.519 | 0.433 | 0.553 | 0.393 | 0.44 | 0.987 | 1.08 | 1.29 | 0.831 | 0.895 | 1 | 0.93 | 0.858 | 0.406 | 0.429 | 0.501 | 0.388 | 0.32
13 | NCI-H1437 | 0.983 | 0.855 | 1.07 | 0.471 | 0.567 | 0.754 | 0.888 | 0.966 | 0.698 | 1.21 | 1.21 | 1.38 | 1.23 | 0.644 | 0.672 | 0.651 | 0.599 | 0.557
14 | NCI-H1650 | 0.536 | 0.636 | 0.569 | 0.347 | 0.447 | 0.75 | 0.813 | 0.915 | 0.579 | 1.11 | 1.06 | 1.31 | 0.755 | 0.652 | 0.761 | 0.643 | 0.736 | 0.813
15 | NCI-H1651 | 0.601 | 0.59 | 0.655 | 0.567 | 0.539 | 0.785 | 0.807 | 0.834 | 0.855 | 0.85 | 0.688 | 0.934 | 0.807 | 0.174 | 0.198 | 0.197 | 0.201 | 0.187
16 | NCI-H1666 | 0.684 | 0.765 | 0.918 | 0.66 | 0.8 | 0.508 | 0.746 | 0.475 | 0.332 | 0.897 | 0.969 | 1.13 | 0.932 | 0.731 | 0.722 | 0.777 | 0.712 | 0.773
17 | NCI-H1734 | 0.46 | 0.509 | 0.542 | 0.362 | 0.387 | 1.11 | 0.977 | 1.06 | 0.76 | 0.934 | 0.846 | 0.849 | 0.91 | 0.509 | 0.538 | 0.531 | 0.365 | 0.509
